Data on 28 compounds can be found in US8163779B2, “Glucokinase activators” (Takeda San Diego, Inc., priority 2006, dated 2012).

This test concerns the target T1, glucokinase (GK) (Homo sapiens, UniProt P35557).
T1 construct: I.D. No. 1 corresponds to residues 12-465 of glucokinase; made in house; host or cells: E. coli DH10b-T1r
T1 sequence (P35557 with tags, fused parts or gaps isoform P35557-2): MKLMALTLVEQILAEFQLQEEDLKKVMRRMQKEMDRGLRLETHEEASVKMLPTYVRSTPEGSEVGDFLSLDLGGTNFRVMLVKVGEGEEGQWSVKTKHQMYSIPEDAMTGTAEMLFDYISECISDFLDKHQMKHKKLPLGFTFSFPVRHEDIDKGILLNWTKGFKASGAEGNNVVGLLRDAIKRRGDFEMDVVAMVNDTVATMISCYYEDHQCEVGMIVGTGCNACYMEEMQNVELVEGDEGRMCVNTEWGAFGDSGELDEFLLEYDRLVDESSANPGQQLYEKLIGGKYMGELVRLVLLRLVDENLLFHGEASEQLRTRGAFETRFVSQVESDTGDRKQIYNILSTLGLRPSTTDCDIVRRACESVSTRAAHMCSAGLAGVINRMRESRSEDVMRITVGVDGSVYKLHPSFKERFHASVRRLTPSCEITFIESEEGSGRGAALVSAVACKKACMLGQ
In words: enzymatic glucokinase activity assay (ATP consumption, KinaseGlo luminescence). The format is biochemical. To be noted: recombinant GK residues 12-465; 5 μM ATP, 5 mM Glucose; Kact = concentration that displays 50% of the maximal increase in GK activity; read-out: pKact. A digest of the protocol:
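Activation was scored as ATP consumption, quantified by KinaseGlo luciferase luminescence after a 60 min room-temperature reaction. Reactions contained E. coli-expressed, purified GK, 5 μM ATP, 5 mM glucose, 10 mM MgCl2, 0.01% Brij35 and 2% DMSO at pH 7.2; pKact was fitted non-linearly.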
In general terms: Kinase-Glo measures the ATP left after a reaction by luminescence.

Counter-ions that a name gives are not always drawn. Bounds are passed on as bounds.

As for `COCCC(C)(C)S(=O)(=O)c1ccn([C@@H](CC2CCOCC2)C(=O)Nc2nc3ccc(OC)nc3s2)c(=O)c1` [Example 121, (S)-2-(4-(4-methoxy-2-methylbutan-2-ylsulfonyl)-2-oxopyridin-1(2H)-yl)-N-(5-methoxythiazolo[5,4-b]pyridin-2-yl)-3-(tetrahydro-2H-pyran-4-yl)propanamide], the EC50 is 1.58 to 15.8 µM. For the compound `Cc1cc(S(=O)(=O)c2cccc(Cl)c2)cc(=O)n1[C@@H](CC1CCOCC1)C(=O)Nc1ncc(F)s1` [Example 168, (S)2-(4-(3-chlorophenylsulfonyl)-6-methyl-2-oxopyridin-1(2H)-yl)-N-(5-fluorothiazol-2-yl)-3-(tetrahydro-2H-pyran-4-yl)propanamide], the EC50 is under 1.58 µM. The value for `Cc1cc(-c2ccc(F)cc2)cc(=O)n1[C@@H](CC1CCCCC1)C(=O)Nc1nccs1` [Example 105, (S)-3-cyclohexyl-2-(4-(4-fluorophenyl)-6-methyl-2-oxopyridin-1(2H)-yl)-N-(thiazol-2-yl)propanamide] was over 15.8 µM. To `COc1ccc2nc(NC(=O)C(CC3CCOCC3)n3ccc(N4CC[C@H](O)C4)cc3=O)sc2n1` (stereo partly drawn) [Example 125, 2-(4-((S)-3-hydroxypyrrolidin-1-yl)-2-oxopyridin-1(2H)-yl)-N-(5-methoxythiazolo[5,4-b]pyridin-2-yl)-3-(tetrahydro-2H-pyran-4-yl)propanamide] belongs over 15.8 µM; to `CNS(=O)(=O)c1cccc(-c2cc(C)n([C@@H](CC3CCCCC3)C(=O)Nc3nccs3)c(=O)c2)c1` [Example 114, (S)-3-cyclohexyl-2-(6-methyl-4-(3-(N-methylsulfamoyl)phenyl)-2-oxopyridin-1(2H)-yl)-N-(thiazol-2-yl)propanamide], 1.58 to 15.8 µM. On to `Cc1cc(-c2ccc(C#N)cc2)cc(=O)n1[C@@H](CC1CCCCC1)C(=O)Nc1nccs1` [Example 98, (S)-2-(4-(4-cyanophenyl)-6-methyl-2-oxopyridin-1(2H)-yl)-3-cyclohexyl-N-(thiazol-2-yl)propanamide], for which the EC50 fell in the range of 1.58 to 15.8 µM. To `Cc1cc(S(=O)(=O)C2CCCC2)cc(=O)n1[C@@H](CC1CCOCC1)C(=O)Nc1ccc(F)cn1` [Example 165, (S)-2-(4-(cyclopentylsulfonyl)-6-methyl-2-oxopyridin-1(2H)-yl)-N-(5-fluoropyridin-2-yl)-3-(tetrahydro-2H-pyran-4-yl)propanamide] belongs 1.58 to 15.8 µM; to `Cc1cc(S(=O)(=O)C2CC2)cc(=O)n1C(CC(C)(C)C)C(=O)Nc1ncc(Cl)s1` (stereo not shown) [Example 25, N-(5-chlorothiazol-2-yl)-2-(4-(cyclopropylsulfonyl)-6-methyl-2-oxopyridin-1(2H)-yl)-4,4-dimethylpentanamide], under 1.58 µM; to `CS(=O)(=O)c1ccn(C(CC2CCOCC2)C(=O)Nc2ncc(CCC(=O)O)s2)c(=O)c1` (stereo not shown) [Example 53, 3-(2-(2-(4-(methylsulfonyl)-2-oxopyridin-1(2H)-yl)-3-(tetrahydro-2H-pyran-4-yl)propanamido)thiazol-5-yl)propanoic acid], over 15.8 µM. The value for `Cc1cc(S(=O)(=O)C2CCS(=O)(=O)CC2)cc(=O)n1C(CC1CCCCC1)C(=O)Nc1ncc(F)s1` (stereo not shown) [Example 161, N-(5-fluorothiazol-2-yl)-2-(4-(1,1-dioxotetrahydrothiopyran-4-ylsulfonyl)-6-methyl-2-oxopyridin-1(2H)-yl)-3-cyclohexyipropanamide] was 1.58 to 15.8 µM; that for `O=C(Nc1ccc(Cl)cn1)[C@@H](CC1CCOCC1)n1ccc(S(=O)(=O)C2CCCC2)cc1=O` [Example 41, (R)-N-(5-chloropyridin-2-yl)-2-(4-(cyclopentylsulfonyl)-2-oxopyridin-1(2H)-yl)-3-(tetrahydro-2H-pyran-4-yl)propanamide] was over 15.8 µM; that for `COc1ccc(Cl)cc1-c1cc(C)n([C@@H](CC2CCCCC2)C(=O)Nc2nccs2)c(=O)c1` [Example 103, (S)-2-(4-(5-chloro-2-methoxyphenyl)-6-methyl-2-oxopyridin-1(2H)-yl)-3-cyclohexyl-N-(thiazol-2-yl)propanamide] was over 15.8 µM.

Turning to `Cc1c(S(=O)(=O)C2CCCC2)c(C)c(=O)n([C@H](CC2CCOCC2)C(=O)Nc2ncc(Cl)s2)c1C` [Example 136, (R)-N-(5-chlorothiazol-2-yl)-2-(4-(cyclopentylsulfonyl)-3,5,6-trimethyl-2-oxopyridin-1(2H)-yl)-3-(tetrahydro-2H-pyran-4-yl)propanamide], the EC50 lay within 1.58 to 15.8 µM. The value for `Cc1cc(S(=O)(=O)C2CCCC2)cc(=O)n1C(CC1CCCCC1)C(=O)Nc1nccs1` (stereo not shown) [Example 5, 3-cyclohexyl-2-(4-(cyclopentylsulfonyl)-6-methyl-2-oxopyridin-1(2H)-yl)-N-(thiazol-2-yl)propanamide trifluoroacetic acid salt] was under 1.58 µM; that for `CS(=O)(=O)c1ccn(C(Cc2cc(F)ccc2Cl)C(=O)Nc2ncc(Cl)s2)c(=O)c1` (stereo not shown) [Example 9, 3-(2-chloro-5-fluorophenyl)-N-(5-chlorothiazol-2-yl)-2-(4-(methylsulfonyl)-2-oxopyridin-1(2H)-yl)propanamide] was over 15.8 µM; that for `O=C(Nc1nccs1)[C@H](CC1CCCCC1)n1ccc(S(=O)(=O)C2CCCC2)cc1=O` [Example 13, (S)-3-cyclohexyl-2-(4-(cyclopentylsulfonyl)-2-oxopyridin-1(2H)-yl)-N-(thiazol-2-yl)propanamide] was under 1.58 µM.

`COCCC(C)(C)S(=O)(=O)c1ccn(C(CC2CCOCC2)C(=O)Nc2nc3ccc(OC)nc3s2)c(=O)c1` (stereo not shown) [Example 88, 2-(4-(4-methoxy-2-methylbutan-2-ylsulfonyl)-2-oxopyridin-1(2H)-yl)-N-(5-methoxythiazolo[5,4-b]pyridin-2-yl)-3-(tetrahydro-2H-pyran-4-yl)propanamide]: the EC50 lay in the range of 1.58 to 15.8 µM. To `COc1ccc2nc(NC(=O)C(CC3CCOCC3)n3ccc(S(=O)(=O)CCCO)cc3=O)sc2n1` (stereo not shown) [Example 67, 2-(4-(3-hydroxypropylsulfonyl)-2-oxopyridin-1(2H)-yl)-N-(5-methoxythiazolo[5,4-b]pyridin-2-yl)-3-(tetrahydro-2H-pyran-4-yl)propanamide] belongs over 15.8 µM. For the compound `O=C(Nc1cnccn1)[C@@H](CC1CCOCC1)n1ccc(S(=O)(=O)C2CC2)cc1=O` [Example 69, (R)-2-(4-(cyclopropylsulfonyl)-2-oxopyridin-1(2H)-yl)-N-(pyrazin-2-yl)-3-(tetrahydro-2H-pyran-4-yl)propanamide], the EC50 was over 15.8 µM. For `Cc1cc(Br)cc(=O)n1[C@@H](CC1CCCCC1)C(=O)Nc1nccs1` [Example 61, (S)-2-(4-bromo-6-methyl-2-oxopyridin-1(2H)-yl)-3-cyclohexyl-N-(thiazol-2-yl)propanamide], the EC50 is over 15.8 µM.

On to `Cc1cc(S(=O)(=O)C2CC2)cc(=O)n1C(CC1CCCC1)C(=O)Nc1ncc(Cl)s1` (stereo not shown) [Example 178, N-(5-chlorothiazol-2-yl)-3-cyclopentyl-2-(4-(cyclopropylsulfonyl)-6-methyl-2-oxopyridin-1(2H)-yl)propanamide], for which the EC50 is under 1.58 µM. To `O=C(Nc1ncc(Cl)s1)C(CC1CCCCC1)n1cc(Cl)c2sccc2c1=O` (stereo not shown) [Example 124, 2-(7-chloro-4-oxothieno[3,2-c]pyridin-5(4H)-yl)-N-(5-chlorothiazol-2-yl)-3-cyclohexylpropanamide] belongs over 15.8 µM. The value for `O=C(Nc1nc2ccc(Cl)cc2s1)C(CC1CCOCC1)n1ccc(S(=O)(=O)C2CC2)cc1=O` (stereo not shown) [Example 130, N-(6-chlorobenzo[d]thiazol-2-yl)-2-(4-(cyclopropylsulfonyl)-2-oxopyridin-1(2H)-yl)-3-(tetrahydro-2H-pyran-4-yl)propanamide] was 1.58 to 15.8 µM; that for `Cc1cc(-c2ccccc2)cc(=O)n1[C@@H](CC1CCCCC1)C(=O)Nc1nccs1` [Example 90, (S)-3-cyclohexyl-2-(6-methyl-2-oxo-4-phenylpyridin-1(2H)-yl)-N-(thiazol-2-yl)propanamide] was over 15.8 µM. As to `Cc1c(S(=O)(=O)C2CCCC2)c(C)c(=O)n([C@@H](CC2CCOCC2)C(=O)Nc2ncc(Cl)s2)c1C` [Example 135, (S)-N-(5-chlorothiazol-2-yl)-2-(4-(cyclopentylsulfonyl)-3,5,6-trimethyl-2-oxopyridin-1(2H)-yl)-3-(tetrahydro-2H-pyran-4-yl)propanamide], the EC50 is under 1.58 µM. Turning to `Cc1cc(-c2ccccc2F)cc(=O)n1[C@@H](CC1CCCCC1)C(=O)Nc1nccs1` [Example 110, (S)-3-cyclohexyl-2-(4-(2-fluorophenyl)-6-methyl-2-oxopyridin-1(2H)-yl)-N-(thiazol-2-yl)propanamide], the EC50 is over 15.8 µM.

Turning to `O=C(Nc1ncc(F)s1)[C@H](CC1CCOCC1)n1ccc(S(=O)(=O)C2CCCC2)cc1=O` [Example 34, (S)-2-(4-(cyclopentylsulfonyl)-2-oxopyridin-1(2H)-yl)-N-(5-fluorothiazol-2-yl)-3-(tetrahydro-2H-pyran-4-yl)propanamide], the EC50 was under 1.58 µM. The value for `COc1ccc2nc(NC(=O)[C@@H](CC3CCOCC3)n3ccc(S(=O)(=O)CCCO)cc3=O)sc2n1` [Example 71, (R)-2-(4-(3-hydroxypropylsulfonyl)-2-oxopyridin-1(2H)-yl)-N-(5-methoxythiazolo[5,4-b]pyridin-2-yl)-3-(tetrahydro-2H-pyran-4-yl)propanamide] was over 15.8 µM.
